The structures appear in SMILES notation.

Assay [1] concerns MR1T cell clones. The assay can be described thus: MR1T cell activation assay with THP-1 cells incubated with compounds (cytokine ELISA). The note with it: for number of MR1T clones significantly stimulated: fourteen randomly selected MR1T clones, THP-1 cells, IFN-γ (FIG. 12B); for activation of MR1T clone MCA3C3 (IFN-γ): THP-1 cells pre-incubated with 250 μM of molecule (FIG. 8G, right); for activation of MR1T clone DGB129 (IFN-γ): THP-1 cells pre-incubated with 250 μM of molecule (FIG. 8G, middle). The format is cell-based, human. As for the experimental part:
MR1T cells (5×10^4/well unless otherwise indicated) were co-cultured with the indicated APCs (10^5 cells per well unless otherwise indicated) for 18 h in 120 μL volume in triplicate.
When nucleobases, nucleosides or nucleotides (all 250 μM) and synthetic compounds M3ADE, OPdA, M1G or OPdC were used to stimulate T cells, the THP-1 cells (10^5/well) were cultured 2 h with the indicated molecules or medium only, prior to T-cell addition. When a single concentration of synthetic antigens was used, 100 μM OPdA, 100 μM OPdC and 13 μM M1G were used for all clones, while 100 μM M3ADE was used for all clones except DGB129, AC1A4, AC1B76 and AVA46 for which 1 μM was used.
(An ELISA detects its analyte on a solid surface through an enzyme-linked reagent.)

Assay [2] deals with T1, MR1 surface expression on THP-1 MR1 cells (Homo sapiens, UniProt Q95460).
T1 construct: expressed in transfected cells; host or cells: THP-1 (ATCC TIB-202) stably expressing MR1 (THP1-MR1)
The assay can be described thus: Cell surface MR1 modulation on APCs (flow cytometry, anti-MR1 mAb 26.5). The note with it: for cell surface MR1 upregulation on APCs (in words): pulsed APC / THP1-MR1 cells. The format is cell-based. As for the experimental part: […] […] For each condition, net MFI was calculated subtracting isotype MFI from anti-MR1 MFI and fold change of cells treated with synthetic molecules over cells treated with vehicle was calculated.
For orientation: A flow cytometer gives signals particle by particle.

In assay [3] the test system is MR1T cell clones. The assay can be described thus: Competition assay for stimulation of MR1T cell clones. Type of assay: cell-based, human. The note with it: APCs with compound 2 h (3 doses), then antigen at optimal concentration, cytokine ELISA. As for the experimental part:
As positive control for competition with antigens, Ac-6-FP was used (100 μM). Supernatants were collected after 24 h for cytokine analysis measured by ELISA.

Setting [4] is: THP-1 MR1 cells, 3 h at 37° C., 3 doses each.

T1 sequence (Q95460 23-341): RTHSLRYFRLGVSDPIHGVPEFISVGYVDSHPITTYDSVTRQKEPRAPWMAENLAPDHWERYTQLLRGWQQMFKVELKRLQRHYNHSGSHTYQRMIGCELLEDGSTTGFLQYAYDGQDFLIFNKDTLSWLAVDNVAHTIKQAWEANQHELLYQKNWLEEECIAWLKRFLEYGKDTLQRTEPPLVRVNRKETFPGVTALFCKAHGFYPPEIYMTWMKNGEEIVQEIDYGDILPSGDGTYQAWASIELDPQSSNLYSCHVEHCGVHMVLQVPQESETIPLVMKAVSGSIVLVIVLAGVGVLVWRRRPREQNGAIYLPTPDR
T1 sequence (P61769 21-119 partner): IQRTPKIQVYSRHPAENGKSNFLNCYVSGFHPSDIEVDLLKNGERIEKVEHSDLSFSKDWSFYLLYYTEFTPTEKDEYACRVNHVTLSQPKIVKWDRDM

Turning to `O=C/C=C/Nc1ncnc2c1ncn2[C@H]1C[C@H](O)[C@@H](CO)O1` (stereo in doubt) [Cmpd 12, N6-(3-oxo-1-propenyl)-2′-deoxyadenosine], the “Reactive T cells isolated” value in the assay on MR1T cell clones [1] is reported as “YES”. For the same molecule, in assay [2] (setting [4]), the MRI upregulation result is “YES”.
As for `O=c1[nH]cc([C@@H]2O[C@H](CO)C(O)C2O)c(=O)[nH]1` (stereo in doubt) [Cmpd 36, 5-(3,4-dihydroxy-5-(hydroxymethyl)tetrahydrofuran-2-yl)pyrimidine-2,4(1H,3H)-dione], in the assay on MR1T cell clones [3], the Competition result is “YES”. Also, the MRI upregulation result in assay [2] (setting [4]) is “YES”.
For the molecule `O=C/C=C/Nc1ccn([C@H]2C[C@H](O)[C@@H](CO)O2)c(=O)n1` (stereo in doubt) [Cmpd 38, N4-(3-oxo-1-propenyl)-2′-deoxycytidine], in the assay with MR1T cell clones [1], the “activation of MR1T clone TC5A87 by adduct” value is “activated”, the “stimulation of MR1T clone QY1A16 by adduct” value was “stimulated” and the “number of MR1T clones significantly stimulated” value is “three”.
For `Nc1ncnc2c1ncn2[C@@H]1O[C@H](COP(=O)(O)OP(=O)(O)O)[C@@H](O)[C@H]1O` [ADP, reference compound], the “activation of MR1T clone MCA3C3 (IFN-γ)” value with MR1T cell clones [1] is recorded as “activated”.
On to `Cn1cnc2c(ncn2[C@@H]2O[C@H](CO)[C@@H](O)[C@H]2O)c1=N` [Cmpd 1, 1-methyladenosine], for which the Competition result with MR1T cell clones [3] is “YES”. The MRI upregulation entry in assay [2] (setting [4]) was “YES”.
Consider `Cc1nc(N)c2ncn([C@@H]3O[C@H](CO)[C@@H](O)[C@H]3O)c2n1` [Cmpd 2, 2-methyladenosine], for which the Competition entry in the assay on MR1T cell clones [3] is given as “YES”. Moreover, the MRI upregulation entry in assay [2] (setting [4]) is given as “YES”. In addition, the “cell surface MR1 upregulation on APCs (in words)” value in assay [2] was “upregulation”.
With `CO[C@@H]1[C@H](O)[C@@H](CO)O[C@H]1n1cnc2c(N)ncnc21` [Cmpd 3, 2′-O-methyladenosine], the “Reactive T cells isolated” value in the assay on MR1T cell clones [1] is “YES”. The MRI upregulation entry in assay [2] (setting [4]) is listed as “YES”.
Take `CN(C)c1ncnc2c1ncn2[C@@H]1O[C@H](CO)[C@@H](O)[C@H]1O` [Cmpd 4, N6,N6-dimethyladenosine]: the “Reactive T cells isolated” value in the assay on MR1T cell clones [1] is “YES”. Besides, the “compound-specific MR1T cell activation (IFN-γ)” value with MR1T cell clones [1] (clones DGB129, MCA2E7 and TC5A87, THP-1 cells, overnight (FIG. 3)) is “activation”. For the same molecule, in assay [2] (setting [4]), the MRI upregulation result is “YES”.
Regarding `C/C(=C\CNc1ncnc2c1ncn2[C@@H]1O[C@H](CO)C(O)C1O)CO` (stereo partly drawn) [Cmpd 7, N6-(cis-hydroxyisopent-2-enyl) adenosine], the Competition result in the assay on MR1T cell clones [3] is on record as “YES”.
`CSc1nc(NC/C=C(\C)CO)c2ncn([C@@H]3O[C@H](CO)C(O)C3O)c2n1` (stereo partly drawn) [Cmpd 8, 2-methylthio-N6-(cis-hydroxyisopent-2-enyl) adenosine]: the “Reactive T cells isolated” value in the assay with MR1T cell clones [1] is reported as “YES”. Moreover, in assay [2] (setting [4]), the MRI upregulation result is reported as “YES”.
`CSc1nc(NCC=C(C)C)c2ncn([C@@H]3O[C@H](CO)[C@@H](O)[C@H]3O)c2n1` [Cmpd 9, 2-methylthio-N6-isopent-2-enyladenosine]: the Competition result with MR1T cell clones [3] is reported as “YES”.
Regarding `O=C/C=C/Nc1ncnc2c1ncn2[C@H]1C[C@H](O)[C@@H](CO)O1` [Cmpd 12, N6-(3-oxo-1-propenyl)-2′-deoxyadenosine], in the assay on MR1T cell clones [1], the “activation of MR1T clone AC1A4 by adduct” value is “activated”, the “activation of MR1T clone TC5A87 by adduct” value was “activated”, the “stimulation of MR1T clone QY1A16 by adduct” value was “stimulated” and the “number of MR1T clones significantly stimulated” value is recorded as “eight”.
Take `CCCCCC(=O)Cc1cnc2c3ncn([C@H]4C[C@H](O)[C@@H](CO)O4)c3ncn12` [Cmpd 14, 1-(3-((2R,4S,5R)-4-hydroxy-5-(hydroxymethyl)tetrahydrofuran-2-yl)-3H-imidazo[2,1-i]purin-7-yl)heptan-2-one]: in assay [2] (setting [4]), the MRI upregulation entry is “YES”.
Regarding `Cn1c(N)nc2c(ncn2[C@@H]2O[C@H](CO)[C@@H](O)[C@H]2O)c1=O` [Cmpd 15, 1-methylguanosine], the Competition entry in the assay with MR1T cell clones [3] is reported as “YES”. Further, the “Reactive T cells isolated” value with MR1T cell clones [1] is reported as “YES”.
As to `CNc1nc2c(ncn2[C@@H]2O[C@H](CO)[C@@H](O)[C@H]2O)c(=O)[nH]1` [Cmpd 16, N2-methylguanosine], the MRI upregulation entry in assay [2] (setting [4]) is “YES”.
As to `C[n+]1cn([C@@H]2O[C@H](CO)[C@@H](O)[C@H]2O)c2nc(N)[nH]c(=O)c21` [Cmpd 17, 7-methylguanosine], in the assay with MR1T cell clones [3], the Competition result is given as “YES”. Besides, the “Reactive T cells isolated” value with MR1T cell clones [1] is “YES”.
As for `CO[C@@H]1[C@H](O)[C@@H](CO)O[C@H]1n1cnc2c(=O)[nH]c(N)nc21` [Cmpd 18, 2′-O-methylguanosine], the Competition result in the assay on MR1T cell clones [3] is recorded as “YES”. The MRI upregulation result in assay [2] (setting [4]) was “YES”.
Take `O=c1c2nc[nH]c2nc2ncccn12` [Cmpd 24, pyrimido(1,2-a)purin-10(1H)-one]: in the assay on MR1T cell clones [1], the “Reactive T cells isolated” value is “YES”, the “activation of MR1T clone AC1A4 by adduct” value is “activated” and the “number of MR1T clones significantly stimulated” value is “three”. The “response to THP-1 cells when adduct added” value in the assay on MR1T cell clones [1] (M1G or M3ADE added to clones QY1A16 and QY1C3, respectively) is given as “significant decreased response”. In addition, the MRI upregulation entry in assay [2] (setting [4]) was “YES”.
For `CCCCCC(=O)Cc1c[nH]c2nc3c(ncn3[C@H]3C[C@H](O)[C@@H](CO)O3)c(=O)n12` [Cmpd 25, 3-((2R,5R)-4-hydroxy-5-(hydroxymethyl)tetrahydrofuran-2-yl)-7-(2-oxoheptyl)-3H-imidazo[1,2-a]purin-9(5H)-one], the MRI upregulation entry in assay [2] (setting [4]) is “YES”.
Turning to `CO[C@@H]1[C@H](O)[C@@H](CO)O[C@H]1n1ccc(N)nc1=O` [Cmpd 29, 2′-O-methylcytidine], the Competition entry in the assay with MR1T cell clones [3] is listed as “YES”. The MRI upregulation result in assay [2] (setting [4]) is listed as “YES”.
`Cc1cn([C@@H]2O[C@H](CO)[C@@H](O)[C@H]2O)c(=O)[nH]c1=O` [Cmpd 31, 5-methyluridine]: the Competition entry in the assay with MR1T cell clones [3] is on record as “YES”. Moreover, in assay [2] (setting [4]), the MRI upregulation result is given as “YES”.
Consider `O=C/C=C/Nc1ccn([C@H]2C[C@H](O)[C@@H](CO)O2)c(=O)n1` [Cmpd 38, N4-(3-oxo-1-propenyl)-2′-deoxycytidine], for which, in assay [2] (setting [4]), the MRI upregulation entry was “YES”.
As for `CSc1ncnc2c1ncn2[C@@H]1O[C@H](CO)[C@@H](O)[C@H]1O` [Cmpd 40, (2R,3S,4R,5R)-2-(hydroxymethyl)-5-(6-(methylthio)-9H-purin-9-yl)tetrahydrofuran-3,4-diol], the “Reactive T cells isolated” value in the assay on MR1T cell clones [1] is recorded as “YES”. Besides, the MRI upregulation result in assay [2] (setting [4]) is given as “YES”.
As to `Cn1c(N)nc2[nH]cnc2c1=O` [Cmpd 47, 1-Methylguanine], the MRI downmodulation entry in assay [2] (setting [4]) is given as “YES”.
Turning to `CNc1nc2c(ncn2[C@H]2C[C@H](O)[C@@H](CO)O2)c(=O)[nH]1` [Cmpd 48, N2-Methyl-2′-deoxyguanosine], the MRI upregulation result in assay [2] (setting [4]) is given as “YES”.
Take `CSC[C@H]1O[C@@H](n2cnc3c(N)ncnc32)[C@H](O)[C@@H]1O` [Cmpd 52, 5′-Deoxy-5′-(methylthio)adenosine]: the Competition entry in the assay with MR1T cell clones [3] is “YES”.
With `CNc1ncnc2c1ncn2[C@H]1C[C@H](O)[C@@H](CO)O1` [Cmpd 53, N6-Methyl-2′-deoxyadenosine], in the assay on MR1T cell clones [1], the “Reactive T cells isolated” value is “YES”.
Same read-out and setting: for `OCCNc1ncnc2c1ncn2[C@H]1C[C@H](O)[C@@H](CO)O1` [Cmpd 54, N6-(2-Hydroxyethyl)-2′-deoxyadenosine] the value was “YES”.
`CC(=O)C=O` [MG, methylglyoxal, reference compound]: in the assay with MR1T cell clones [1] (clone DGB129, Methylglyoxal (FIG. 9I)), the “MR1T-cell stimulation by GLO1-deficient compared to wild-type THP-1 cells” value is given as “significantly increased”. Further, in the assay on MR1T cell clones [1] (clone DGB129, Methylglyoxal (FIG. 9J)), the “MR1T-cell stimulation with GLO1-overexpressing THP-1 cells” value is listed as “failed to induce”.
Regarding `CN(C)c1ncnc2c1ncn2[C@@H]1O[C@H](CO)[C@@H](O)[C@H]1O` [N6,N6-dimethyladenosine], the “cell surface MR1 upregulation on APCs (in words)” value in assay [2] is listed as “upregulation”.
Regarding `Nc1ncnc2nc[nH]c12` [adenine, reference compound], the “activation of MR1T clone DGB129 (IFN-γ)” value in the assay with MR1T cell clones [1] was “reacted”.
Same read-out and setting: the entry for `Nc1ncnc2c1ncn2[C@@H]1O[C@H](CO)[C@@H](O)[C@H]1O` [adenosine, reference compound] is “reacted”.
`Nc1ncnc2c1ncn2[C@H]1C[C@H](O)[C@@H](CO)O1` [deoxyadenosine, reference compound]: in the assay with MR1T cell clones [1], the “activation of MR1T clone DGB129 (IFN-γ)” value is on record as “reacted”. Further, the “MR1T reactivity using GLO1-deficient THP-1 cells as APCs” value in the assay on MR1T cell clones [1] (clone DGB129, deoxyadenosine (FIG. 9K)) is “increased”. In the assay on MR1T cell clones [1] (clone DGB129, deoxyadenosine (FIG. 9L)), the “MR1T reactivity using GLO1-overexpressing THP-1 cells” value was “decreased”.
As to `Nc1nc2c(ncn2[C@H]2C[C@H](O)[C@@H](CO)O2)c(=O)[nH]1` [deoxyguanosine, reference compound], the “activation of MR1T clone MCA3C3 (IFN-γ)” value with MR1T cell clones [1] is “activated”.
Still for that read-out and setting: for `Nc1nc2nc[nH]c2c(=O)[nH]1` [guanine, reference compound] the value was “activated”; for `Nc1nc2c(ncn2[C@@H]2O[C@H](CO)[C@@H](O)[C@H]2O)c(=O)[nH]1` [guanosine, reference compound], “activated”.
With `OC[C@H]1O[C@@H](n2cnc3c(O)ncnc32)[C@H](O)[C@@H]1O` [inosine, reference compound], the “activation of MR1T clone DGB129 (IFN-γ)” value in the assay with MR1T cell clones [1] is reported as “reacted”.
In the case of `O=c1[nH]c(=O)c2ncn([C@@H]3O[C@H](CO)[C@@H](O)[C@H]3O)c2[nH]1` [xanthosine, reference compound], in the assay on MR1T cell clones [1], the “activation of MR1T clone MCA3C3 (IFN-γ)” value is “activated”.

The values above are taken from patent US20230099822A1, “MR1 LIGANDS AND PHARMACEUTICAL COMPOSITIONS FOR IMMUNOMODULATION” (UNIVERSITÄT BASEL, priority 2020, published 2023).
